Source: patent US20130053430A1, “MODULATION OF CETP EXPRESSION” (Isis Pharmaceuticals, Inc., priority 2010, published 2013)
e = 2'-O-(2-methoxyethyl) (MOE); d = 2'-deoxy (DNA)

Columns and labels:
human CETP mRNA = test: Dose-dependent antisense inhibition of human CETP in SW872 liposarcoma cells (Example 2); assay type: cell-based; settings: Lipofectin, ~16 hours (Example 2)
Description: Cells were plated at a density of 50,000 cells per well in a 24-well plate and transfected using Lipofectin reagent with 50 nM, 150 nM, and 300 nM concentrations of each antisense oligonucleotide. After approximately 16 hours, RNA was isolated from the cells and CETP mRNA levels were measured by quantitative real-time PCR. CETP mRNA levels were normalized to total RNA content, as measured by the house-keeping gene, GAPDH mRNA levels. Results are presented in Table 4 as percent inhibition of CETP, relative to untreated control cells.

[1] = Plasma cholesterol and triglyceride levels (Example 8); assay type: in vivo; settings: huCETP transgenic mice, Western diet
Description: The mice were divided into two groups of 4-6 mice each.
Plasma cholesterol were extracted at week 6 by the method of Bligh and Dyer (Bligh, E. G. and Dyer, W. J. Can. J. Biochem. Physiol. 37: 911-917, 1959) and measured with an Olympus clinical analyzer (Hitachi Olympus AU400e, Melville, N.Y.). HDL and LDL cholesterol were individually measured by HPLC. Triglyceride levels were measured with the use of a commercially available triglyceride kit (DCL Triglyceride Reagent; Diagnostic Chemicals Ltd., Charlottetown, Canada). The results are presented in Table 41 and are expressed in mg/dL.

[2] = 25 mg/kg s.c. twice per week for 2 weeks

With “ISIS 349517: 5-10-5 MOE gapmer CAGCACTTTAATGCCAGTGG (sugars from the 5' end e5 d10 e5, backbone and methylation of C not given here)” as the substance, how does the “percent inhibition of CETP” value (human CETP mRNA; 50 nM) read?
The value was 100%.

And the “percent inhibition of CETP” value (human CETP mRNA; 150 nM)?
The value was 98%.

And the “percent inhibition of CETP” value (human CETP mRNA; 300 nM)?
The value was 98%.

And the “HDL % at week 0” value [1, 2]?
Its value is 39%.

And the HDL cholesterol [1, 2]?
Its HDL cholesterol is 155 mg/dL.

What about the “LDL Cholesterol” value [1, 2] of the same substance?
Its value is 48 mg/dL.

What about the Total cholesterol [1, 2] of the same substance?
The Total cholesterol was 212 mg/dL.

What about the Triglycerides [1, 2] of the same substance?
Its Triglycerides is 58 mg/dL.

And the “increase in HDL levels compared to the PBS control” value ([1]; 25 mg/kg s.c. twice per week, on week 3)?
The value was 30%.
